Laboratory results: US20250188085A1, “COMPOSITIONS AND METHODS FOR INHIBITION OF RAS” (THERAS, INC., priority 2022, published 2025)
Like-named read-outs stand apart in the source and are kept apart here.

What was measured:
pERK in NCI-H358 cells = test: Cell-based pERK HTRF assay; settings: 30 min incubation, read-out: pERK in NCI-H358 cell inhibition IC50
Protocol: pERK assays (Perkin Elmer) were used to determine the effectiveness of compounds of the present disclosure in disrupting KRAS G12C protein/effector signaling in cells.
On Day 1, cells (NCI-H358) were seeded into 96-well plates at 4×10^4 cells/well in complete growth media (RPMI, 10% FBS).
On Day 2, cells were treated with compounds at 0.25% DMSO. The source plate was created with compounds diluted in media at 5-fold the final assay concentration. The compounds were run in a 9-point concentration curve starting at 75 μM, with a 3-fold dilution between concentrations. 20 μL was transferred onto the cell plates (final volume in wells was 100 μL). Plates were harvested after 30 min incubation by aspirating media and adding kit-supplied 1× supplemented lysis buffer to all wells (75 μl per well). Plates were then placed on a plate shaker and incubated at 850 rpm for an additional 30 min.
Antibody mixture solution was prepared by diluting aliquoted d2 and Eu Cryptate antibodies 1:20 in kit supplied detection buffer, then mixed the diluted antibodies solutions (1:1 v:v). 4 μL of this solution was then added to a 384-well detection plate (Perkin Elmer; 6008230).
Samples were homogenized by pipetting up and down and then transferred (16 μL of cell lysates) from the 96-well cell culture plate to two wells of the HTRF 384-well detection plate containing the antibody solution. Plates were centrifuged (524 g for Imin) and allowed to incubate between 4 and 24 h at room temperature. Maximum signal is reached after 4 h incubation time and remains stable over a period of 24 hours. Therefore, readings can be made between 4 and 24 h of incubation. Plates were centrifuged again (524 g for Imin) and analyzed on the En Vision plate reader using the following settings: Excitation 320 nm, Bandwidth 75 nm; Emission 615 nm, Bandwidth 85 nm; Gain 100%; Flashes 100; Lag 60 μs.

[1] = target: T1, GppNHp-loaded KRAS4b (amino acids 1-169) G12C/C118S protein (Homo sapiens, UniProt P01116, C118S/G12C); test: Covalent cysteine 12 modification by MALDI-TOF MS, GppNHp-loaded KRAS G12C; format: binding; settings: 15 minutes reaction time point
T1 construct: KRAS4b (amino acids 1-169) G12C/C118S protein; made in house
Protocol: (§1) Reaction: 1 μM of GppNHp-, GTP-, or GDP-loaded KRAS4b (amino acids 1-169) G12C/C118S protein (produced in-house by Protein Expression Laboratory, FNLCR/Leidos Biomed) in 20 mM 4-(2-hydroxyethyl)-1-piperazineethanesulfonic acid (HEPES) buffer containing 150 mM NaCl, 1 mM MgCl2, pH 7.3 was prepared freshly before assay. Ten-μL aliquots of protein were dispensed onto low volume 384-well plate, then 375 nL DMSO, and 25 nL of tested compounds from 5 mM DMSO stocks were added to appropriate wells using ECHO 555 acoustic liquid handler (Labcyte Inc.). For each reaction/assay, three blanks were prepared by mixing 10 μL of protein solution with 400 nL DMSO. The contents of the wells were carefully mixed by aspiration, and then each plate was sealed with an adhesive cover, centrifuged at 2000 g for 1 minute, and kept in the dark at room temperature until 5 min, 15 min, 30 min, or 2 h collections.
(§2) Target pretreatment: Before each assay MALDI target (Bruker MPT 384 ground steel BC) was pre-treated by pipetting on each spot 0.75 μL of saturated sinapinic acid in acetonitrile (ACN).
(§3) Sample preparation: At collection time point, 2 μL of reaction mixtures were pipetted out into 20 μL MALDI matrix solution (saturated solution of sinapinic acid in 1:1 ACN:water solution containing 0.75% trifluoroacetic acid (TFA)) deposited on 384 well polypropylene plate. Resulting solution was mixed by aspiration, centrifuged at 2000 g for 1 minute, then 1 μL aliquots were dispensed on pre-treated MALDI target using Beckman Coulter Biomek FXP 96/384-Span-8 Laboratory Automation Workstation. Finally, the MALDI target was dried under mild vacuum to produce spots with fine crystalline structure.
(§4) Measurements: MALDI-TOF measurements were performed on a Bruker Daltonics rapiflex Tissuetyper TOF-TOF mass spectrometer using linear mode and mass range from 18.6 to 21.6 kDa. Detector gain was set to 3.3× (483 V), sample rate to 5 GS/s, real time smoothing to medium (175 MHz), laser smart beam pattern was set to: “MS Thin Layer M5”, and the laser frequency was 10000 Hz. Spectra were automatically collected using custom Auto Xecute method. Laser power was auto adjusted using fuzzy control. The peak selection range was set to be between 19000 and 21500 Da. Peak evaluation uses half width parameter set to be smaller than 40 Da for processed spectrograms (centroid peak detection; smoothed by SavitzkyGolay algorithm using 7 m/z width and 2 cycles; baseline was subtracted using median algorithm with flatness 1 and median level 0.01). Fuzzy control used Proteins/Oligonucleotides protocol with minimum half width 1/10 times above threshold. Up to 40000 satisfactory shots were collected in 10000 shot steps. Dynamic termination was implemented to finish data collection when peak signal/noise ratio was reaching value of 50.
(§5) Spectra processing: Spectra were smoothed by SavitzkyGolay algorithm using 7 m/z width and three cycles. Centroid peak detection algorithm was used with signal to noise threshold set to 6, relative intensity threshold 4%, peak width 10 m/z and median baseline subtraction using flatness of 1 and median level of 0.01. Peak intensity and area under the peak were evaluated and recorded for all peaks between 19,300 Da and 21,550 Da.
(§6) Calculation of percent modification: Percent modification was calculated as a ratio of peak height for protein modified by compound to sum of peak height of remaining protein plus peak height for protein modified by compound. If multiple modifications were observed each was calculated as a ratio of peak height for given modification versus sum of peak heights for all observed protein species. Data reported in Table 5 are from 15 minutes reaction time point.

[2] = target: T2, GDP-loaded KRAS4b (amino acids 1-169) G12C/C118S protein (Homo sapiens, UniProt P01116, C118S/G12C); test: Covalent cysteine 12 modification by MALDI-TOF MS, GDP-loaded KRAS G12C; format: binding; settings: 15 minutes reaction time point
T2 construct: KRAS4b (amino acids 1-169) G12C/C118S protein; made in house
Protocol: as §1, §2, §3, §4, §5, §6

[3] = target: T3, Avi-KRAS G12C (1-169) GppNHp/RAF1 RBD-3×FLAG (52-151) (Homo sapiens, UniProt P01116, G12C); test: Raf1 RBD-KRAS G12C-GppNHp disruption (protein:protein interaction HTRF assay); format: biochemical
T3 construct: Avi-KRAS G12C (1-169) GppNHp/RAF1 RBD-3×FLAG (52-151)
Protocol: A protein: protein (PPI) interaction Homogeneous Time Resolved Fluorescence (HTRF) assay was used to determine the effectiveness of compounds of the present disclosure in disrupting KRAS G12C protein and effector (RAF1 or PIK3CA) binding.
The HTRF assay used the following reagents and proteins: 50 nM Avi-KRAS G12C Q25A (1-169) GppNHp/3×FLAG-PI3K CA (157-299); 50 nM Avi-KRAS G12C (1-169) GppNHp/RAF1 RBD-3×FLAG (52-151); 35 nM Avi-PI3K RBD-3×FLAG; Assay Buffer: 50 mM Tris pH 7.5, 100 mM NaCl, 5 mM MgCl2, 0.1% BSA, 0.01% Tween 20, 10% DMSO; Bead Buffer: 50 mM Tris pH 7.5, 0.01% Tween 20; Assay volume: 20 μL (384 well plate-low volume format); and Compound titration: 30-0.02 μM, 3× dilution series.
The HTRF assay employed the following protocol:
Compounds were dispensed in assay plate (384-well, Grenier Bione #784075) using Echo (model 555) with dose response settings: 200 nL final volume, titration from 100 μM as a 10-point dilution series. KRAS proteins were prepared in assay buffer, and dispensed on plates, 5 μL per well, then incubated for 1 h at room temperature, with 700 rpm shaking. RAF1 RBD and PI3K RBD CA were prepared in assay buffer, dispensed onto plates, 5 μL per well, and then incubated for 1 h at room temperature, with 700 rpm shaking. Reagent mix was then prepared and dispensed on plates, 10 μL per well, and then incubated for 1 h at room temperature, with 700 rpm shaking.
Plates were analyzed on an Envision plate reader using the following setting: Excitation 320 nm, Bandwidth 75 nm; Emission 615 nm, Bandwidth 85 nm; Gain 100%; Flashes 100; Lag 60 μs. Data was reported as percentage of activity, with DMSO as 100%. Data was plotted and analyzed using Prism 8.

SMILES | IC50 (pERK in NCI-H358 cells) [µM] | GppNHp-KRAS G12C percent of modification [1] | GDP-KRAS G12C percent of modification [2] | IC50 [3] [µM] | IC50 (pERK in NCI-H358 cells; Homo sapiens, NCI-H358, 0.5 h) [µM]
C=CC(=O)N1CC[C@@H](Oc2nc(OC[C@@]34CCCN3C[C@H](F)C4)nc3c(F)c(-c4ccc(F)c5sc(N)nc45)c(C(F)(F)F)cc23)[C@@H]1C (atropisomer, axis not shown) [Compound 41] | 0.1 to 1 | C (10%≤modification <50%) | A (percent of modification ≥70%) | ≤ 0.5 | 
C=CC(=O)N1CC[C@@H](Oc2nc(OC[C@@]34CCCN3C[C@H](F)C4)nc3c(F)c(-c4ccc(F)c5sc(N)nc45)c(C(F)(F)F)cc23)[C@@H]1C (atropisomer, axis not shown) [Compound 42] | > 1 | D (percent of modification <10%) | D (percent of modification <10%) | > 20 | 
C=CC(=O)N1CC[C@@H](Oc2nc(OC[C@@]34CCCN3C[C@H](F)C4)nc3c(F)c(-c4ccc(F)c5sc(N)nc45)c(C(F)(F)F)cc23)C1 (single isomer, unassigned) [Compound 11] |  | A (percent of modification ≥70%) | A (percent of modification ≥70%) | ≤ 0.5 | ≤ 0.1
C=CC(=O)N1CC[C@@H](Oc2nc(OC[C@@]34CCCN3C[C@H](F)C4)nc3c(F)c(-c4ccc(F)c5sc(N)nc45)c(C(F)(F)F)cc23)C1 (single isomer, unassigned) [Compound 12] | 0.1 to 1 | D (percent of modification <10%) | D (percent of modification <10%) | 0.5 to 5 | 
C=CC(=O)N1CC[C@@H](Oc2nc(OC[C@@H]3C[C@@H](OC)CN3C)nc3c(F)c(-c4ccc(F)c5sc(N)nc45)c(C(F)(F)F)cc23)C1 (single isomer, unassigned) [Compound 14] | ≤ 0.1 | B (50≤percent of modification <70%) | A (percent of modification ≥70%) | ≤ 0.5 | 
C=CC(=O)N1CC[C@@H](Oc2nc(OC[C@@H]3C[C@@H](OC)CN3C)nc3c(F)c(-c4ccc(F)c5sc(N)nc45)c(C(F)(F)F)cc23)C1 (single isomer, unassigned) [Compound 15] | > 1 | D (percent of modification <10%) | D (percent of modification <10%) | > 20 | 
C=CC(=O)N1CC[C@@H](Oc2nc(OC[C@]34CCCN3C[C@H](OC)C4)nc3c(F)c(-c4ccc(F)c5sc(N)nc45)c(C(F)(F)F)cc23)C1 (single isomer, unassigned) [Compound 30] | ≤ 0.1 | A (percent of modification ≥70%) | A (percent of modification ≥70%) | ≤ 0.5 | 
C=CC(=O)N1CC[C@@H](Oc2nc(OC[C@]34CCCN3C[C@H](OC)C4)nc3c(F)c(-c4ccc(F)c5sc(N)nc45)c(C(F)(F)F)cc23)C1 (single isomer, unassigned) [Compound 31] | > 1 | D (percent of modification <10%) | D (percent of modification <10%) | 0.5 to 5 | 
C=CC(=O)N1CC(Oc2nc(OC[C@@H]3CCCN3C)nc3c(F)c(-c4ccc(F)c5sc(N)nc45)c(Cl)cc23)C1 [Compound 1] |  | C (10%≤modification <50%) | A (percent of modification ≥70%) | 0.5 to 5 | 0.1 to 1
CC#CC(=O)N1CC(Oc2nc(OC[C@@H]3CCCN3C)nc3c(F)c(-c4ccc(F)c5sc(N)nc45)c(Cl)cc23)C1 [Compound 2] |  | D (percent of modification <10%) | B (50≤percent of modification <70%) | 0.5 to 5 | 0.1 to 1
